From US6825192B1, “Heterodiazinone derivatives” (Eisai Co., Ltd., priority 1999, dated 2004)
Structures can show the parent of a compound that is named as a salt.

Legend:
male ddy mice = assay: Inhibitory action on AMPA-inducing spasm; format: in vivo; conditions: intravenous, 5 minutes before 1.5 nmol AMPA into the ventricle
Procedure: A test compound or its solvent only was intravenously injected into 4-week-old male ddy mice, and 5 minutes later, 1.5 nmol AMPA was administered into the ventricle thereby inducing spasm. The action of the test chemical was judged by the presence or absence of spasm, and its dose causing 80% or more inhibition was regarded as an effective dose.

AMPA receptor = assay: Inhibitory action on AMPA-inducing inflow of calcium into nerve cells (Fura2-AM); format: cell-based; conditions: rat cerebral cortex nerve cells on astrocytes, 1 μM MK-801, stimulated by 2 μM AMPA, fluorescence 340/380 nm
Procedure: The cerebral cortex was excised from the brain of a rat on day 18 after birth and treated with trypsin and DNase, whereby the cells were dispersed. The cells were allowed to float on DMEM containing 10% serum, inoculated into a culture bottle, and their astrocytes were grown. The astrocytes were re-dispersed with trypsin and inoculated onto each well on a 96-well plate. After it was confirmed that the bottom of each well was completely covered with the astrocytes after culture for 1 week, cerebral cortex nerve cells dispersed in the same manner as above were inoculated thereon. After 24 hours, the medium was exchanged with fresh one, and after culture for further 1 week, the medium was exchanged with a medium containing 1 μM MK-801.
The inflow of calcium into the cells was measured using Fura2-AM that is a calcium-sensitive fluorescent pigment. By treating the cells with a Fura2-AM-containing medium for 1 hour, Fura2-AM was incorporated into the cells, and the medium was exchanged with a Tyrode solution containing 1 μM MK-801. After a test compound was added, the cells were stimulated by 2 μM AMPA. The change in the amount of calcium flowing into the cells was measured as a change in the fluorescence intensity at wavelengths of 340/380 nm. The effect of a test compound was evaluated where the reaction caused by AMPA added to the Tyrode solution free of the test compound was used as the control.

AMPA receptor channels = assay: Inhibitory action on AMPA-inducing electric current in nerve cell membrane (patch clamp); format: cell-based; conditions: cultured rat cerebral cortex nerve cells, membrane potential -70 mV, 10 μM AMPA
Procedure: The action on AMPA receptor channels was examined by a patch clamp method.
The cerebral cortex was excised from the brain of a rat on day 18 after birth and treated with trypsin and DNase, whereby the cells were dispersed. The cells were allowed to float on DMEM containing 10% serum, inoculated into a culture bottle, and their astrocytes were grown. The astrocytes were re-dispersed with trypsin and inoculated onto each well on a 12-well plate.
After it was confirmed that the bottom of each well was completely covered with the astrocytes after culture for 1 week, a cover glass treated with poly-1-lysine was placed thereon, and cerebral cortex nerve cells dispersed in the same manner as above were further inoculated thereon. After 24 hours, the medium was exchanged with fresh one, and after culture for further 1 week, the medium was exchanged with a medium containing 1 μM MK-801.
The membrane potential of the cerebral cortex nerve cells cultured for 9 days or more was fixed at −70 mV by a patch clamp method, and after a test compound was added, 10 μM AMPA was applied as a stimulus to the cells. By using, as the control, electric current flowing via the membrane into the cells in the absence of the test compound, the action of the compound in Example 1 was examined.

male SD rat = assay: Reduction of infarct in a model with occlusion of midbrain/cerebrum arteries; format: in vivo; conditions: from 30 min after occlusion, 6 h, vs solvent only
Procedure: The cervical region of a 8-week-old male SD rat was cut across the midline, and a right carotid artery was removed. An operation nylon thread (standard 4-0) was inserted into an external carotid artery, and blood stream in the midbrain/cerebrum arteries in the skull was occluded by the nylon thread, whereby a model with occlusion of midbrain/cerebrum arteries was prepared. Thirty minutes after the midbrain/cerebrum arteries were occluded, a test compound or its solvent only was once administered intravenously into the rat, and thereafter, it was continuously administered intravenously at a constant injection rate. The body temperature was controlled at 37.5 to 38.0° from the initiation of administration to the termination of administration. Six hours after the initiation of administration, the brain was excised from the rat and immediately cut into brain sections of 2 mm in thickness, which were then stained with 2% TTC solution. An image of these stained sections was incorporated into NIH image and the area of non-stained portions showing infarct loci was measured, and thereafter, the volume of the infarct loci was calculated.

[1] = test system: rat model with cerebral ischemia; conditions: Le Peillet et al., Brain Research, 571, 115, 1992; cited from earlier work
[2] = test system: experimental animal model with cerebral ischemia; conditions: Sheardown et al., Science, 247, 571, 1990; cited from earlier work

SMILES: O=C1COC(c2ccccn2)=NN1c1ccccc1 [Example 1, 2-(2-Pyridyl)-4-phenyl-4H-1,3,4-oxadiazine-5(6H)-one hydrochloride]
- effective dose (dose causing 80% or more inhibition of spasm) (male ddy mice): 30 mg/kg
- IC50 (AMPA receptor): 11.8 µM
- IC50 (AMPA receptor channels): 12.3 µM
- reduction of infarct loci in the cerebral cortex (male SD rat; single i.v. 6.6 mg/kg then continuous i.v. 10 mg/kg/h): 54%
- reduction of infarct loci in the cerebral cortex (male SD rat; single i.v. 20 mg/kg then continuous i.v. 30 mg/kg/h): 74%

SMILES: CN(C)CCOc1ccccc1C1=NN(c2ccccc2Br)C(=O)CO1.Cl [Example 54, 2-[2-(2-Dimethylamino)ethoxyphenyl]-4-(2-bromophenyl)-4H-1,3,4-oxadiazine-5(6H)-one hydrochloride]
- effective dose (dose causing 80% or more inhibition of spasm) (male ddy mice): 30 mg/kg
- IC50 (AMPA receptor): 4.14 µM
- melting point: 169 to 170 °C

SMILES: CC1=NN=C(c2ccc(N)cc2)c2cc3c(cc2C1)OCO3 [GYKI 52466, 1-(amino-phenyl)-4-methyl-7,8-methylenedioxy-5H-2,3-benzoazepine hydrochloride, reference compound]
- nerve-protecting action in rat model with cerebral ischemia [1]: exerts a nerve-protecting action
- IC50 (AMPA receptor): 9.02 µM

SMILES: NS(=O)(=O)c1cccc2c1c([N+](=O)[O-])cc1nc(O)c(O)nc12 [NBQX, 2,3-dihydroxy-6-nitro-7-sulfamoyl-benzo[f-]quinoxaline]
- effect in experimental animal model with cerebral ischemia [2]: effective
